Data reported in ChEMBL document CHEMBL1201862, “PubChem BioAssay data set” (2004).
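A five-concentration, 48-hour dose response in 96-well plates underlies each endpoint, interpolated linearly between surrounding concentrations. Here, GI50 denotes the concentration required for 50% inhibition of growth.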 The source made the active and inactive calls. Rule as the data show it: active = GI50 up to about 1.1 µM and inactive = higher.

How the values were obtained:
Assay in all cases: DTP human tumour cell line panel, 48 h
A549 = test system: A549
CAKI-1 = test system: CAKI-1
DU-145 = test system: DU-145
HT-29 = test system: HT-29
K562 = test system: K562
KM12 = test system: KM12
LOX IMVI = test system: LOX IMVI
MDA-MB-231 = test system: MDA-MB-231
MDA-N = test system: MDA-N
Malme-3M = test system: Malme-3M
OVCAR-5 = test system: OVCAR-5
SF-268 = test system: SF-268
SK-MEL-28 = test system: SK-MEL-28
SK-OV-3 = test system: SK-OV-3
SN12C = test system: SN12C
SR = test system: SR
UACC-257 = test system: UACC-257
HL-60 = test system: HL-60

Compound | GI50 (A549) | GI50 (CAKI-1) | GI50 (DU-145) | GI50 (HT-29) | GI50 (K562) | GI50 (KM12) | GI50 (LOX IMVI) | GI50 (MDA-MB-231) | GI50 (MDA-N) | GI50 (Malme-3M) | GI50 (OVCAR-5) | GI50 (SF-268) | GI50 (SK-MEL-28) | GI50 (SK-OV-3) | GI50 (SN12C) | GI50 (SR) | GI50 (UACC-257) | GI50 (HL-60)
CCOC(=O)[C@@]12C[C@](/C=C/OC)(O[Si](C)(C)C)[C@@]13c1cc(OC)c(OC)cc1CCN3C(=O)C2O (stereo partly specified) | > 100 µM (inactive) | > 100 µM (inactive) | > 100 µM (inactive) | > 100 µM (inactive) | > 100 µM (inactive) | > 100 µM (inactive) | > 100 µM (inactive) | > 100 µM (inactive) | > 100 µM (inactive) | > 100 µM (inactive) | > 100 µM (inactive) | > 100 µM (inactive) | > 100 µM (inactive) | > 100 µM (inactive) | > 100 µM (inactive) | > 100 µM (inactive) | > 100 µM (inactive) | 
C[C@H]1[C@H](C)N1CC(O)Cn1ccnc1[N+](=O)[O-] (stereo partly specified) | > 100 µM (inactive) | > 100 µM (inactive) | > 100 µM (inactive) | > 100 µM (inactive) | > 100 µM (inactive) | > 100 µM (inactive) | > 100 µM (inactive) | > 100 µM (inactive) | > 100 µM (inactive) | > 100 µM (inactive) | > 100 µM (inactive) | > 100 µM (inactive) | > 100 µM (inactive) | > 100 µM (inactive) | > 100 µM (inactive) | > 100 µM (inactive) | > 100 µM (inactive) | > 100 µM (inactive)
COc1ccc(OC)c(NC2=NCCO2)c1 | > 100 µM (inactive) | 15 µM (inactive) | > 100 µM (inactive) | 62.2 µM (inactive) | > 100 µM (inactive) | > 100 µM (inactive) | > 100 µM (inactive) | > 100 µM (inactive) | 45.4 µM (inactive) | > 100 µM (inactive) | > 100 µM (inactive) | > 100 µM (inactive) | > 100 µM (inactive) |  | > 100 µM (inactive) | 66.4 µM (inactive) | > 100 µM (inactive) | 83.8 µM (inactive)
CC(C)OP(=O)(OC(C)C)/C(C#N)=C/c1c[nH]c2ccccc12 | > 100 µM (inactive) | > 100 µM (inactive) | > 100 µM (inactive) | > 100 µM (inactive) | > 100 µM (inactive) | > 100 µM (inactive) | > 100 µM (inactive) | > 100 µM (inactive) | > 100 µM (inactive) | 86.3 µM (inactive) | > 100 µM (inactive) | > 100 µM (inactive) | > 100 µM (inactive) | 92 µM (inactive) | > 100 µM (inactive) | 68.1 µM (inactive) | 54.3 µM (inactive) | 19.1 µM (inactive)
CCOC(=O)NC(Nc1ccc(S(=O)(=O)Nc2ccc(OC)nn2)cc1)(C(F)(F)F)C(F)(F)F | 35.3 µM (inactive) | > 100 µM (inactive) | 43.5 µM (inactive) | 39.1 µM (inactive) | 32.2 µM (inactive) | 30.8 µM (inactive) | 29.5 µM (inactive) | 18.8 µM (inactive) | 42 µM (inactive) | 20.2 µM (inactive) | 32.2 µM (inactive) | 36.1 µM (inactive) | 24.9 µM (inactive) | 52 µM (inactive) | 25.4 µM (inactive) | 24.7 µM (inactive) | 33.1 µM (inactive) | 26.7 µM (inactive)
CNC1=C(C)C(=O)C(O)=C([C@H](C)CCC=C(C)C)C1=O | 20.3 µM (inactive) | 11.6 µM (inactive) | 30.6 µM (inactive) | 36.6 µM (inactive) | 29 µM (inactive) | 17 µM (inactive) | 14.7 µM (inactive) | 48 µM (inactive) | 29.6 µM (inactive) | 16 µM (inactive) | 77.8 µM (inactive) | 19.1 µM (inactive) | 31.4 µM (inactive) | 23.9 µM (inactive) | 22.8 µM (inactive) | 7.38 µM (inactive) | 32.7 µM (inactive) | 2.4 µM (inactive)
COc1ccc2cc(Oc3ccc(Cl)cc3)c(=O)oc2c1 | > 100 µM (inactive) | > 100 µM (inactive) | > 100 µM (inactive) | > 100 µM (inactive) | > 100 µM (inactive) | > 100 µM (inactive) | > 100 µM (inactive) | > 100 µM (inactive) | > 100 µM (inactive) | > 100 µM (inactive) | > 100 µM (inactive) | 50.8 µM (inactive) | > 100 µM (inactive) |  | > 100 µM (inactive) | > 100 µM (inactive) | > 100 µM (inactive) | > 100 µM (inactive)
CCCCCCCCCCCCCCCCOc1ccc(/C=C/C2=[N+](CCCl)CCO2)cc1 | > 100 µM (inactive) | > 100 µM (inactive) | > 100 µM (inactive) | > 100 µM (inactive) | 77.3 µM (inactive) | > 100 µM (inactive) | > 100 µM (inactive) | 20.1 µM (inactive) | > 100 µM (inactive) | > 100 µM (inactive) | > 100 µM (inactive) |  | > 100 µM (inactive) | > 100 µM (inactive) | > 100 µM (inactive) | 30.1 µM (inactive) | > 100 µM (inactive) | 12 µM (inactive)
CCN1C(NN)=NS(=O)(=O)c2ccccc21 | > 100 µM (inactive) | > 100 µM (inactive) | > 100 µM (inactive) | > 100 µM (inactive) | > 100 µM (inactive) | > 100 µM (inactive) | > 100 µM (inactive) | > 100 µM (inactive) | > 100 µM (inactive) |  | > 100 µM (inactive) | > 100 µM (inactive) | > 100 µM (inactive) | > 100 µM (inactive) | > 100 µM (inactive) | > 100 µM (inactive) | > 100 µM (inactive) | > 100 µM (inactive)
COC(=O)/C=C1\C(=O)C=C2[C@@H]3C[C@H]4C[C@H](CC[C@@]4(C)N21)C3(C)NC(C)=O (stereo partly specified) | 23.6 µM (inactive) | 5.64 µM (inactive) | 10.7 µM (inactive) | 8.02 µM (inactive) | 7.66 µM (inactive) | 16 µM (inactive) | 17 µM (inactive) | 26 µM (inactive) | 11.2 µM (inactive) |  | 18.1 µM (inactive) | 6.68 µM (inactive) | 3.12 µM (inactive) | 24.2 µM (inactive) | 11.7 µM (inactive) | 18.8 µM (inactive) | 15.6 µM (inactive) | 5.55 µM (inactive)
S=C1SC(=N\c2ccccc2)/C(=N/c2ccccc2)N1c1ccc2ccccc2c1 |  | > 100 µM (inactive) | > 100 µM (inactive) |  | > 100 µM (inactive) | > 100 µM (inactive) |  | > 100 µM (inactive) | > 100 µM (inactive) | > 100 µM (inactive) | > 100 µM (inactive) |  | > 100 µM (inactive) | > 100 µM (inactive) | > 100 µM (inactive) | > 100 µM (inactive) |  | > 100 µM (inactive)
C[C@@H]1C[C@@H](O)[C@@]2(O)C13CC(=O)OC(C3)[C@@H](C)[C@@]2(C)CO (stereo partly specified) | > 100 µM (inactive) |  | > 100 µM (inactive) | > 100 µM (inactive) | > 100 µM (inactive) | > 100 µM (inactive) | > 100 µM (inactive) | > 100 µM (inactive) | > 100 µM (inactive) | > 100 µM (inactive) | > 100 µM (inactive) | > 100 µM (inactive) | > 100 µM (inactive) | > 100 µM (inactive) | > 100 µM (inactive) | > 100 µM (inactive) | > 100 µM (inactive) | > 100 µM (inactive)
COc1cc(C2=C(C#N)C(N)OC3=C2COc2ccccc23)cc(OC)c1OC (stereo unspecified) | 17.5 µM (inactive) |  | 10.6 µM (inactive) | 77.1 µM (inactive) | 78 µM (inactive) | 81.7 µM (inactive) | 35.5 µM (inactive) | 15.2 µM (inactive) | > 100 µM (inactive) | 11.9 µM (inactive) | > 100 µM (inactive) | 14.9 µM (inactive) | 24.8 µM (inactive) | 16.4 µM (inactive) | 16.1 µM (inactive) | 19.5 µM (inactive) | 31.3 µM (inactive) | > 100 µM (inactive)
COc1ccc(/C=C2\CCS(=O)(=O)c3ccccc3C2=O)cc1 | 39.4 µM (inactive) | 26.5 µM (inactive) | 23.2 µM (inactive) | 18.8 µM (inactive) | 30.1 µM (inactive) | 16.6 µM (inactive) | 20.4 µM (inactive) | 24.6 µM (inactive) | 31.4 µM (inactive) |  | 26.7 µM (inactive) | 30.3 µM (inactive) | 26.9 µM (inactive) | 38.3 µM (inactive) | 28.3 µM (inactive) | 8.55 µM (inactive) | 23.3 µM (inactive) | 21.5 µM (inactive)
c1ccc(/C(=N/Nc2ccccn2)c2ncccn2)cc1 | 3.62 µM (inactive) | 0.0528 µM (active) | 3.99 µM (inactive) | < 0.01 µM (active) | 0.121 µM (active) | 3.18 µM (inactive) |  | 0.55 µM (active) | 16.5 µM (inactive) | 0.538 µM (active) | 2.77 µM (inactive) | 0.855 µM (active) | 3.93 µM (inactive) | 2.3 µM (inactive) | 0.488 µM (active) | 0.929 µM (active) | 0.729 µM (active) | 0.0524 µM (active)
O=C(Nc1ccccc1)c1cc(S(=O)(=O)n2ccnc2O)c(S)cc1Cl | > 100 µM (inactive) | > 100 µM (inactive) | > 100 µM (inactive) | > 100 µM (inactive) | > 100 µM (inactive) | > 100 µM (inactive) | > 100 µM (inactive) | > 100 µM (inactive) | > 100 µM (inactive) |  | > 100 µM (inactive) | > 100 µM (inactive) | > 100 µM (inactive) |  | > 100 µM (inactive) | > 100 µM (inactive) | > 100 µM (inactive) | > 100 µM (inactive)
